Where two headings read alike, the source gives them in different places.
Biological target: AmQNS (quinolone synthase) (Aegle marmelos, UniProt M1HE54)
Assay: Surface plasmon resonance (SPR) AmQNS-substrate interaction studies
Format: binding
Settings: for association rate constant (kon): SPR association rate; for dissociation rate constant (koff): SPR dissociation rate
Text: ProteOn XPR array system[21] and ‘GLM’ sensor chip was used for the SPR interaction studies. […] Here, amine coupling works, where the amine groups present in the AmQNS covalently bind to the chemically activated carboxyl groups of the dextran molecules. Channel L3 and L4 were used for immobilization of protein while L2 was used as reference. The extent of non-specific interactions was eliminated or reduced by optimizing the buffer conditions. […] N-methylanthraniloyl-CoA was purchased from TransMIT (Plant MetaChem, www.plantmetachem.com), whereas all other substrates were purchased from Sigma-Aldrich (www.sigmaaldrich.com).
Following AmQNS immobilization and its stability screening, all binding studies were done at 30 °C. The SPR-based system measures the changes in refractive index to investigate the direct interaction between AmQNS and different CoA substrates. […] In our experiments, AmQNS was captured on the surface of the GLM sensor chip and used to screen the preferred substrates (acyl-CoA’s) in the presence and absence of malonyl-CoA. […] The sensogram was prepared by processing the data (after subtraction of L2 responses (reference channel). Baseline drift due to the bulk refractive index change, non-specific binding, matrix effects and injection noise were also corrected using the reference spots. Further, the responses obtained from the AmQNS-small molecular interactions at different concentrations were fitted using the Langmuir 1:1 biomolecular interaction model using the ProteOn Manager software version 3.1.0.6 (Bio-Rad, USA). Equilibrium dissociation constants (KD) were calculated from the ratio of the association and dissociation rates.

[1] = AmQNS immobilized on GLM chip, 30 °C, Langmuir 1:1 model
[2] = SPR, AmQNS immobilized on GLM chip, 30 °C, in presence of malonyl-CoA, Langmuir 1:1 model, read-out: KD
[3] = SPR, AmQNS immobilized on GLM chip, 30 °C, Langmuir 1:1 model, read-out: KD (KD= kd /ka)

Chain of AmQNS (quinolone synthase) (M1HE54 entry or part of it): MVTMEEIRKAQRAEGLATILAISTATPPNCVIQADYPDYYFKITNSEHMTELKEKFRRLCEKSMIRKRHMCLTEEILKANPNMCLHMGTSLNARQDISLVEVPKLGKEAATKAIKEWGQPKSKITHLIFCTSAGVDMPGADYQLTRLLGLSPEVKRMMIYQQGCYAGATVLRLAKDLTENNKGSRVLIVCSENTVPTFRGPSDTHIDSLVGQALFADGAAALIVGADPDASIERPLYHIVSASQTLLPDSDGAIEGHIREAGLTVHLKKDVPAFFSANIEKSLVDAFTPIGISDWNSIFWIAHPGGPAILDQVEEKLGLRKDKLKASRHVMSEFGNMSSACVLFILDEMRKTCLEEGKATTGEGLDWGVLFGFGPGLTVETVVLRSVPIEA

SMILES	association rate constant (kon) [1] [M⁻¹ s⁻¹]	dissociation rate constant (koff) [1] [s⁻¹]	Kd [2] [nM]	Kd [3] [nM]	Kd [nM]
COc1cc(/C=C/C(=O)SCCNC(=O)CCNC(=O)[C@H](O)C(C)(C)COP(=O)(O)OP(=O)(O)OC[C@H]2O[C@@H](n3cnc4c(N)ncnc43)[C@H](O)[C@@H]2OP(=O)(O)O)ccc1O [Feruloyl-CoA]	1e+08	0.983	9.83	–	–
CC(C)(COP(=O)(O)OP(=O)(O)OC[C@H]1O[C@@H](n2cnc3c(N)ncnc32)[C@H](O)[C@@H]1OP(=O)(O)O)[C@@H](O)C(=O)NCCC(=O)NCCSC(=O)CC(=O)O [Malonyl-CoA]	78200	0.0134	–	172	–
COc1cc(/C=C/C(=O)SCCNC(=O)CCNC(=O)[C@H](O)C(C)(C)COP(=O)(O)OP(=O)(O)OC[C@H]2O[C@@H](n3cnc4c(N)ncnc43)[C@H](O)[C@@H]2OP(=O)(O)O)cc(OC)c1O [Sinapoyl-CoA]	141000	0.0163	–	116	–
CC(C)(COP(=O)(O)OP(=O)(O)OC[C@H]1O[C@@H](n2cnc3c(N)ncnc32)[C@H](O)[C@@H]1OP(=O)(O)O)[C@@H](O)C(=O)NCCC(=O)NCCSC(=O)/C=C/c1ccc(O)cc1 [p-coumaroyl CoA]	591000	0.0595	–	101	–
CCCCCCCCCCCCCC(=O)SCCNC(=O)CCNC(=O)[C@H](O)C(C)(C)COP(=O)(O)OP(=O)(O)OC[C@H]1O[C@@H](n2cnc3c(N)ncnc32)[C@H](O)[C@@H]1OP(=O)(O)O [Myristoyl-CoA]	13000	0.00404	–	–	–
CCCCCCCCCCCCCCCCCC(=O)SCCNC(=O)CCNC(=O)[C@H](O)C(C)(C)COP(=O)(O)OP(=O)(O)OC[C@H]1O[C@@H](n2cnc3c(N)ncnc32)[C@H](O)[C@@H]1OP(=O)(O)O [Stearoyl-CoA]	11700	0.00193	–	164	–
CCCC(=O)SCCNC(=O)CCNC(=O)[C@H](O)C(C)(C)COP(=O)(O)OP(=O)(O)OC[C@H]1O[C@@H](n2cnc3c(N)ncnc32)[C@H](O)[C@@H]1OP(=O)(O)O [Butyryl-CoA]	36100	0.0495	–	–	1370
CC(C)(COP(=O)(O)OP(=O)(O)OC[C@H]1O[C@@H](n2cnc3c(N)ncnc32)[C@H](O)[C@@H]1OP(=O)(O)O)[C@@H](O)C(=O)NCCC(=O)NCCSC(=O)c1ccccc1 [Benzoyl-CoA]	9510	0.0267	–	2800	–
CNc1ccccc1C(=O)SCCNC(=O)CCNC(=O)[C@H](O)C(C)(C)COP(=O)(O)OP(=O)(O)OC[C@H]1O[C@@H](n2cnc3c(N)ncnc32)[C@H](O)[C@@H]1OP(=O)(O)O [N-methylanthraniloyl-CoA]	1e+08	0.204	2.04	–	–
CCCCCC(=O)SCCNC(=O)CCNC(=O)[C@H](O)C(C)(C)COP(=O)(O)OP(=O)(O)OC[C@H]1O[C@@H](n2cnc3c(N)ncnc32)[C@H](O)[C@@H]1OP(=O)(O)O [Hexanoyl-CoA]	963000	0.00703	7.3	–	–
CCCCCCCCCCCCCCCC(=O)SCCNC(=O)CCNC(=O)[C@H](O)C(C)(C)COP(=O)(O)OP(=O)(O)OC[C@H]1O[C@@H](n2cnc3c(N)ncnc32)[C@H](O)[C@@H]1OP(=O)(O)O [Palmitoyl-CoA]	45800	0.00417	–	91.1	–

From publication PMC11093982, “Structural and mechanistic insights into Quinolone Synthase to address its functional promiscuity” (Communications Biology, 2024)
